Reference: publication PMC6440935, “Characterization and phase I study of CLR457, an orally bioavailable pan-class I PI3-kinase inhibitor” (Investigational New Drugs, 2018)

System: glucose and insulin
Test: First-in-human phase I study: pharmacodynamic markers glucose and insulin
Type: in vivo
Settings: 100 mg QD; not clinically significant
Protocol: At the dose of 100 mg QD, there was an increase in the pharmacodynamic markers glucose and insulin, consistent with that observed in the preclinical models, however this increase was not clinically significant (CTCAE grade ≤ 2) (Fig. 3) and was within the range of expected changes based on preclinical data (Fig. 2).

Q: How did the “CTCAE grade of increase in glucose and insulin” value turn out when C[C@H]1OC(=O)N(c2cc(-c3cnc(N)nc3C(F)(F)F)nc(N3CCOCC3)n2)[C@H]1CO [CLR457] was run?
A: The value was ≤ 2.
